Series [1] concerns luciferase expression (pCI Luc / pCI Ren) in liver of ICR mice. Briefly: HP tail vein dual luciferase: siRNA delivery (Example 77). It is filed as in vivo. The note with it: hydrophobic siRNA. As for the experimental part: HP Tail Vein Dual Luciferase: siRNA delivery Five complexes were prepared as follows:
Tail vein injections of 1.0 mL per 10 g body weight (˜2.5 ml) were preformed on ICR mice (n=2) using a 30 gauge, 0.5 inch needle. Injections were done manually with injection times of 4-5 sec [Zhang et al. 1999; Liu et al. 1999]. One day after injection, the livers were harvested and homogenized in lysis buffer (0.1% Triton X-100, 0.1 M K-phosphate, 1 mM DTT, pH 7.8). Insoluble material was cleared by centrifugation and 10 μl of the cellular extract or extract diluted 10× was analyzed for luciferase activity as previously reported [Wolffetal 1990].

Series [2] has as its system rhodamine labeled PCILuc DNA (pDNA). Description: Rhodamine labeled DNA condensation with cationic surfactants (fluorescence quenching), Example 19. It is filed as physicochemical. The protocol: (§1) PCILuc DNA (pDNA) [Zhang et al. 1997] was modified to a level of 1 rhodamine per 100 bases using Mirus' Label IT® Rhodamine kit (Rhodamine Containing DNA Labeling Reagent, Mirus Corporation). The modified pDNA (10 μg) was mixed with pDNA that was not labeled (90 μg) in water and diluted to a final concentration of 1 μg/μL with water. The modified pDNA/pDNA mixture (5 μg) was diluted with water to a final volume of 500 μL. Different amounts of CTAB were added to the solution and the fluorescence intensity of the solution was measured using a Cary Eclipse Fluorescence Spectrophotometer (ex=555, em=585, Varian, Inc.). Trubetskoy et al have shown that rhodamine labeled pDNA undergoes fluorescence quenching as the pDNA is condensed [Trubetskoy, 1999].
as §1, with “It®” for “IT®”, “dodecylamine hydrochloride” for “CTAB”

Experimental findings from patent US20030235916A1, “Novel methods for the delivery of polynucleotides to cells” (priority 2002, published 2003) are described below.

d = 2'-deoxy (DNA); r = 2'-OH (RNA)

Turning to “GL3-153: siRNA duplex, SEQ ID 12 and its compliment SEQ ID 13, Dharmacon (sense CUUACGCUGAGUACUUCGATT; antisense UCGAAGUACUCAGCGUAAGTT; sugars from the 5' end r19 d2, backbone not given here; listed as Photinus pyralis)”, the “inhibition of luciferase expression” value in series [1] is “inhibits luciferase expression”.

Take `CCCCCCCCCCCCN.Cl` [NC12, dodecylamine hydrochloride]: the “Fluor Int” value in series [2] (N/P 0.6, 2 μg NC12, 0.018 mM NC12, 5 μg pDNA in 500 μL water, ex=555, em=585) was 183.656; in series [2] (N/P 1.2, 4 μg NC12, 0.036 mM NC12), 106.095; in series [2] (N/P 1.8, 6 μg NC12, 0.054 mM NC12) it was 95.586; in series [2] (N/P 2.4, 8 μg NC12, 0.072 mM NC12), 86.119; in series [2] (N/P 3.0, 10 μg NC12, 0.090 mM NC12) it was 77.670; in series [2] (N/P 3.6, 12 μg NC12, 0.108 mM NC12), 68.208. The “Fluor Int” value is 62.115 in series [2] (N/P 4.2, 14 μg NC12, 0.126 mM NC12); 60.158 in series [2] (N/P 4.8, 16 μg NC12, 0.144 mM NC12); 53.467 in series [2] (N/P 5.4, 18 μg NC12, 0.162 mM NC12); 46.790 in series [2] (N/P 6.0, 20 μg NC12, 0.180 mM NC12); 43.375 in series [2] (N/P 6.5, 22 μg NC12, 0.198 mM NC12); 45.000 in series [2] (N/P 7.1, 24 μg NC12, 0.216 mM NC12).

Consider `CCCCCCCCCCCCCCCC[N+](C)(C)C.[Br-]` [CTAB, cetyltrimethylammonium bromide, reference compound], for which the “surfactant concentration at which the pDNA is condensed” value in series [2] (5 μg rhodamine pDNA mixture in 500 μL water) is 0.33 mM. The “Fluor Int” value in series [2] (N/P 0.4, 2 μg CTAB, 0.011 mM CTAB, 5 μg pDNA in 500 μL water, ex=555, em=585) turned out to be 201.540; in series [2] (N/P 0.7, 4 μg CTAB, 0.022 mM CTAB), 159.277; in series [2] (N/P 1.1, 6 μg CTAB, 0.033 mM CTAB), 85.253; in series [2] (N/P 1.4, 8 μg CTAB, 0.044 mM CTAB), 81.625; in series [2] (N/P 1.8, 10 μg CTAB, 0.055 mM CTAB), 78.471; in series [2] (N/P 2.2, 12 μg CTAB, 0.066 mM CTAB) it was 74.722. Also, the “Fluor Int” value in series [2] (N/P 2.5, 14 μg CTAB, 0.077 mM CTAB) came to 67.267; in series [2] (N/P 2.9, 16 μg CTAB, 0.088 mM CTAB), 62.799.
